In US9394253B2, “Kinase protein binding inhibitors” (Roswell Park Cancer Institute, priority 2011, dated 2016):

Legend:
[1] = test system: phosphorylated Akt and phosphorylated Erk; assay: Western blot of downstream effectors of FAK (Akt, Erk); type: cell-based; conditions: MiaPaCa-2-luc and MCF-7-VEGFR3 cells, 1, 10 or 25 μM for 24 hours
Description: Western blots were performed essentially as previously described. See: Beierle E, Ma X, Trujillo A, Kurenova E, Cance W, Golubovskaya V: Inhibition of focal adhesion kinase and src increases detachment and apoptosis in human neuroblastoma cell lines. Mol Carcinog 2010, 49:224-234; Kurenova E, Xu L, Yang X, Baldwin A J, Craven R, Hanks S, Liu Z, Cance W: Focal adhesion kinase suppresses apoptosis by binding to the death domain of receptor-interacting protein. Mol Cell Biol 2004, 24:4361-4371. Briefly, cells were treated with the agent under study, then lysed on ice for 30 min in a buffer containing 50 mM Tris-HCL, (pH 7.5), 150 mM NaCl, 1% Triton-X, 0.5% NaDOC, 0.1% SDS, 5 mM EDTA, 50 mM NaF, 1 mM NaVO3, 10% glycerol, and protease inhibitors: 10 μg/mL leupeptin, 10 μg/mL PMSF and 1 μg/ML aprotinin. The lysates were cleared by centrifugation at 10 000 rpm for 30 min at 4° C. Protein concentrations were determined using a Bio-Rad kit (BioRad, Hercules, Calif.) and proteins were separated by electrophoresis on SDS-PAGE gels. Antibodies were used according to manufacturer's recommended conditions. Molecular weight markers were used to confirm the expected size of the target proteins. Immunoblots were developed with chemiluminescence Amersham ECL Western blotting detection reagents (GE Healthcare Biosciences). […]

MCF-7-VEGFR3 cells = assay: MTS cell viability assay, MCF-7-VEGFR3 cells; type: cell-based; conditions: MTS assay at 72 hours
Description: (§1) Equal numbers of cells were plated and allowed to attach for 24 hours. Cells were treated with the drug or control as described. Cellular viability was measured using trypan blue exclusion and cell counting with a hemacytometer. Viability was further measured with an MTS (3-(4,5-dimethylthiazol-2-yl)-5-(3-carboxymethoxyphenyl)-2-(4-sulfophenyl)-2H-tetrazolium) assay. MTS in the presence of phenazine methosulfate (PMS), produces a formazan product that has an absorbance maximum at 490-500 nm in phosphate-buffered saline. In brief, cells were plated at 5×10^3 cells per well on 96-well culture plates and allowed to attach. Following treatment with siRNA or peptides, […] was added to each well and the absorbance at 490 nm was measured using a kinetic microplate reader (Vmax, Molecular Devices, Inc., Sunnyvale, Calif.). The MTS assay was performed at 72 hours after exposure of the cells to determine the IC50 for each of the selected compounds.
(§2) In FIGS. 15 and 16, MiaPaCa-2-luc cells (with an IC50 for C9 of 8 μM and for C10 of 20 μM) and MCF-7-VEGFR3 cells (with an IC50 for C9 of 4 μM and for C10 of 8 μM) were treated with 1, 10 or 25 μM C9 or C10 for 24 hours (the MCF-7-VEGFR3 cells serving as a positive control in this study). Western blots were performed as described above to determine the levels of total Akt, phosphorylated Akt (pAkt), total Erk, and phosphorylated Erk (pErk). […]

MiaPaCa-2-luc cells [2] = assay: Tumor growth in xenograft nude mice; type: in vivo
Description: Female nude or SCID mice were purchased six weeks old and were maintained in the animal facility, and all experiments were performed in compliance with NIH animal use guidelines using IACUC protocol approved by the Roswell Park Animal Care Committee. The 1×10^6 MiaPaCa2 cells were injected into mice subcutaneously. Next day after cell injection or week later, when tumor size reached 100 mm^3, drug was introduced by IP or gavage orally daily, 5 days per week for several weeks. Tumor diameters were measured with calipers and tumor volume in mm^3 was calculated using this formula: tumor volume=(width)^2×Length/2. At the end of the experiment, tumor weight and volume were determined. Tumor samples were collected for Western blotting and for immunohistochemical analysis.
Mice received a daily dose of the indicated amount of compounds 9A, 9B or C10 either by intraperitoneal injection (IP) or by oral gavage (PO). Treatment was initiated after tumors reached a volume of approximately 100 mm^3. […] The percent reduction in tumor volume compared to the control group (“PBS-IP”) is indicated in FIG. 6B for each treatment group.

MiaPaCa-2-luc cells [3] = assay: MTS cell viability assay, MiaPaCa-2-luc cells; type: cell-based; conditions: Homo sapiens, MTS assay at 72 hours
Description: as §1, §2

[4] = biological target: T1, FAK and VEGFR3 (Flt-4) proteins (Homo sapiens, UniProt Q05397); assay: Immunoprecipitation with FAK antibody after treatment of MiaPaCa-2 cells (FAK-VEGFR3 binding); type: cell-based; conditions: 24 h of treatment
T1 construct: Immunoprecipitation with FAK antibody after 24 h of treatment of MiaPaCa-2 cells; endogenous in cells; host or cells: MiaPaCa-2
Description: For immunoprecipitation, cells are lysed with NP40 lysis buffer, and 1000 μg of total protein is precleared with protein A/G-agarose beads (CalBiochem) at 4° C. for 1 hour and then incubated with 5 μg of antibody overnight followed by a 2 hour incubation with protein A/G-agarose beads at 4° C. Precipitates are washed thrice with cold PBS and the beads are resuspended in SDS-PAGE sample loading buffer, boiled for 5 minutes, and resolved by SDS-PAGE. Proteins are transferred to polyvinylidene difluoride membrane, probed with the appropriate antibody, and detected with chemiluminescence using Amersham ECL Western blotting detection reagents (GE Healthcare Life Sciences, Piscataway, N.J.).
The study utilized the “Octet Red” technology (ForteBio, Menlo Park, Calif.), which provides real-time monitoring for protein-small molecule interactions and binding events using BioLayer Interferometry (BLI) technology. Any change in the number of molecules bound to the biosensor tip changes the optical layer thickness. […] Since C1 is not active against this pancreatic cancer cell line, it was included as a negative control, and chloropyramine (“C4”), which has been shown previously to be active against this cell line, was used as a positive control.

[5] = test system: pancreatic cancer cell line; assay: Clonogenicity (colony formation); type: cell-based, Human; conditions: compared with chloropyramine (C4)
Description: The 500-1000 cells were plated on 6 well plates and incubated at 37° C. for 1-2 weeks. Then cells were fixed in 25% methanol and stained with Crystal Violet and colonies were visualized and counted in two independent experiments.
In FIG. 11, results of such a clonogenicity study are shown for compounds C9 and C10 using a pancreatic cancer cell line. In this particular study, since compound C1 is not active against this particular cancer cell line (see FIG. 3), it was used as a negative control. Chloropyramine (“C4”), which has been previously shown to have some activity against this cancer cell line, was used as a positive control.

FAK FAT domain = biological target: T2, FAK FAT domain (Homo sapiens, UniProt Q05397); assay: Label-free OctetRED binding assay
T2 sequence (Q05397 914-1045 limits assumed): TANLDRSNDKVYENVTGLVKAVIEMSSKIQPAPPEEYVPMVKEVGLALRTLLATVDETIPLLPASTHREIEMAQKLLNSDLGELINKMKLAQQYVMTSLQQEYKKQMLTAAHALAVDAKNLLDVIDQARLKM
Source text: We used a label-free OctetRED method for determining kinetic constants for the binding of small molecule inhibitors to the FAK FAT domain.
A label-free OctetRED method was used for determining kinetic constants for the binding of C9 or C10 to the FAK-FAT domain. Label-free analysis of the association and dissociation of a small molecule with the target protein of interest results in the determination of kinetic constants including the association rate constant (ka), dissociation rate constant (kd), and equilibrium dissociation constant (KD).

[6] = test system: pancreatic cancer cell line; assay: Viability of pancreatic cancer cells exposed to compounds (FIG. 3); type: cell-based, Human; conditions: 50 μM
Description: as §1
FIGS. 1-3 show the results of exposure of the indicated cancer cell lines to 50 μM of the indicated compounds of the invention.

T1 sequence (Q05397 2-1052 limits assumed): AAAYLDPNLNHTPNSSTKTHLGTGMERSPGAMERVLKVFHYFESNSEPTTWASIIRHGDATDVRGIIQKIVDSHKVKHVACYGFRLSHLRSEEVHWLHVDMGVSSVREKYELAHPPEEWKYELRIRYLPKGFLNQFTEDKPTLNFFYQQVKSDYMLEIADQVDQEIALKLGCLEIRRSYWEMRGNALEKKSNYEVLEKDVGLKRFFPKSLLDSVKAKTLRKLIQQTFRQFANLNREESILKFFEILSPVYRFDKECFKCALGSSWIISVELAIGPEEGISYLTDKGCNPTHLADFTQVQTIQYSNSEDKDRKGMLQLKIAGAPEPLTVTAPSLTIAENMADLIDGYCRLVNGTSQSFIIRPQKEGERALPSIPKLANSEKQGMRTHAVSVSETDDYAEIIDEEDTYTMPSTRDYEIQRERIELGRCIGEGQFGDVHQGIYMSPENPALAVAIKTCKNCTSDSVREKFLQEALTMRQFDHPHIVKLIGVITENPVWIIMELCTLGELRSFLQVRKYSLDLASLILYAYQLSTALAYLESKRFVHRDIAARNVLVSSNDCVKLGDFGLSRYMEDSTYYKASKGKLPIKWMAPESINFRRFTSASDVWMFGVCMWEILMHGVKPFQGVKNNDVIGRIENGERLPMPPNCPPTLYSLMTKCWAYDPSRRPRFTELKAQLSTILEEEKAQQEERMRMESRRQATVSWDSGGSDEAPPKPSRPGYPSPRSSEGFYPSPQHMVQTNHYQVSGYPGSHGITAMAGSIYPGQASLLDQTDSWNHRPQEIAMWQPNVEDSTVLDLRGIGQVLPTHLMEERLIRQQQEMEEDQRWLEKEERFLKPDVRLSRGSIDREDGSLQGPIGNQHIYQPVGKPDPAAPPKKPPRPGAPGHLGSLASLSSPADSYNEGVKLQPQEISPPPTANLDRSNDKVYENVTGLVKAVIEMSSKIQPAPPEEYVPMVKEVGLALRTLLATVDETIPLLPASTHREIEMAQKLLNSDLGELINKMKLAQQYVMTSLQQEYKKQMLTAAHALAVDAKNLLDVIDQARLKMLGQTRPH

Row | IC50 (MCF-7-VEGFR3 cells) [µM] | IC50 (MiaPaCa-2-luc cells [3]) [µM] | concentration at which binding of FAK and VEGFR3 (Flt-4) proteins was disrupted [4] [µM] | binding to the FAT domain of FAK (FAK FAT domain) | SMILES | phosphorylated Akt level [1] | phosphorylated Erk level [1] | tumor volume compared to vehicle (PBS)-treated tumors (MiaPaCa-2-luc cells [2]; IP 20 mg/kg daily, P<0.05) | effectiveness by route of administration (MiaPaCa-2-luc cells [2]; oral vs intraperitoneal) | inhibition of colony formation [5] | activity against pancreatic cancer cell line [6]
1 | 8 | 20 | 10 | – | CN(C)CCN(Cc1ccc(Cl)cc1)c1ccc2ccccc2n1 [Compound C10] | strong down-regulation | strong down-regulation | Statistically significant differences | very effective when administered orally | active at much lower doses than C4 | –
2 | – | – | – | does not appear to bind | CN(C)CCNc1ccccn1 [Compound C1] | – | – | – | – | – | not active
